Consider four molecules from paper PMC7610391, “Photocatalytic proximity labelling of MCL-1 by a BH3 ligand” (Communications chemistry, 2019).

Entries after “also recorded” stand apart in the source; their conditions may differ.

As usually defined, the IC50 is the concentration needed to halve the response being measured.

Experiment [1] concerns the target T1, MCL-1/FITC-NOXA-B interaction (Homo sapiens, UniProt Q07820).
T1 construct: Recombinant MCL-1_172–327 was expressed and purified as published previously; made in house
The experiment in a line: Fluorescence anisotropy competition, MCL-1/FITC-NOXA-B. Format: biochemical. The settings on record: [MCL-1] 75 nM, tracer FITC-NOXA-B 25 nM, Tris buffer pH 7.4, triplicate; printed as ≫; read-out: IC50 against MCL-1. (Polarisation of emitted light reports the rotation of a fluorescent probe.)

Experiment [2] concerns the target T2, MCL-1 (Homo sapiens, UniProt Q07820).
T2 construct: Recombinant MCL-1_172–327 was expressed and purified as published previously; made in house
The experiment in a line: Photolabelling of recombinant MCL-1, ESI-MS.

In another experiment the target is T3, BCL-XL (Homo sapiens, UniProt Q07817, DEL27-82).
T3 construct: made in house
Put plainly: Photolabelling of BCL-xL with Ac-RTA 4, ESI-MS. The settings on record: pH 7.4.

For experiment [3], the target named is T2, MCL-1. Put plainly: Pull-down of biotinylated MCL-1 with avidin-agarose beads. The settings on record: 20, 10 µM biotin-RTA 3, or 100 µM with excess label removed. The protocol:
Pull-down of biotinylated MCL-1
The crude labelling mixture was incubated with avadin-agarose beads (50 µL) at r.t. for 2 hours with gentle agitation (input lanes 1-4 and their respective pull-down lanes 6-9). Note that for input lane 5/pull-down lane 10, excess biotin-RTA 3 was removed from the crude labelling mixture using a protein concentrator (10 kDa MWCO) prior to incubation with avidin-agarose beads. Following removal of the supernatant, the beads were washed twice with PBS (100 µL), then boiled at 90 °C for 10 mins in sample loading buffer to elute bound proteins. Samples were separated by SDS-PAGE: the gel (15% acrylamide) was run at a constant voltage of 180 V for 45 min, then the gel was stained with Coomassie Brilliant Blue (CBB) and the image obtained on a Molecular Imager ChemiDoc XRS.
Supplementary Figure 19: Isolation of biotinylated MCL-1 from crude labelling mixture through pull-down with avadin-agarose beads (CBB stained gel). Conditions: 5 µM MCL-1, 0-100 µM biotin-RTA 3, 1 µM Ru(II)(bpy)3-NOXA-B, 10 µM APS, 1 min irradiation, 50 mM […]
3 was used (lanes 7 and 8, respectively), in addition to when 100 µM biotin-RTA 3 was used and the excess label 3 was removed using a protein concentrator (lane 10). 50 µL avidin-agarose beads was used in pull-down experiments.

Experiment [4] addresses T2, MCL-1. Put plainly: Competition of Ru(II)(bpy)3-NOXA-B 1-mediated MCL-1 photolabelling, in-gel fluorescence. The settings on record: 0-100 µM competitor; 5 µM MCL-1, 5 µM TAMRA-RTA 2, 1 µM 1, 10 µM APS, 1 min hν. Format: biochemical.

T2 sequence (Q07820 172-327): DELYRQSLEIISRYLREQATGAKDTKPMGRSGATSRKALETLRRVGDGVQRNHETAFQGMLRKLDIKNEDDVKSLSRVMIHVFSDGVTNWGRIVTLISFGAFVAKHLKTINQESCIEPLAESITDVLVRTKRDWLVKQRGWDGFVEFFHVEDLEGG
T3 sequence (Q07817 with tags, fused parts or gaps DEL27-82, species assumed): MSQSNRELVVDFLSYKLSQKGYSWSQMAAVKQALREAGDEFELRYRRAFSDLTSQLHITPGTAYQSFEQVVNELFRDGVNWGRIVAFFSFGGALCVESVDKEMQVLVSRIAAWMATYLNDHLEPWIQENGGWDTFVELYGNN
T1 sequence (Q07820 172-327): as the sequence (Q07820 172-327) above

For the molecule “6b: variant Ac-BID sequence with key hot-spot residues exchanged (L90A and D95R) (EDIIRNIARHAAQVGRSXDRSIW; N-terminal acetyl; C-terminal amide; X18 = norleucine (Nle))”, in experiment [1], the IC50 was over 50 µM.

Take `[Ru+2].c1ccc(-c2ccccn2)nc1.c1ccc(-c2ccccn2)nc1.c1ccc(-c2ccccn2)nc1` [Ru(II)(bpy)3]: on MCL-1 [2] (20 mol% Ru(II)(bpy)3, 50 μM Ac-RTA 4, 10 μM APS, 1 min irradiation, pH 7.4), the “photolabelling efficiency of MCL-1 versus targeted catalyst 1” value is “labelling was less efficient”. For the same molecule, at BCL-XL, the “effect of photocatalyst concentration on BCL-xL labelling” value is recorded as “increased at higher concentrations of Ru(II)(bpy)3” and the “labelling of BCL-xL with Ac-RTA 4” value is listed as “small amounts of BCL-xL could be labelled”.

With `CN(C)c1ccc(NC(=O)CCCCCNC(=O)CCCCC2SCC3NC(=O)NC32)cc1` (stereo not drawn) [compound 3], the “background labelling with biotin-RTA 3 in the absence of 1” value at MCL-1 [2] (0 µM 1, 5 μM MCL-1, 5 µM biotin-RTA 3, 10 µM APS, 1 min hν) is given as “absence of background labelling”. The “number of labels incorporated on MCL-1” value at MCL-1 [2] (Ru(II)(bpy)3-NOXA-B 1-mediated, intact protein ESI-MS) is listed as “single biotin labelling of MCL-1”. For the same molecule, the “oxidation at irradiation times greater than 1 min” value on MCL-1 [2] (biotin-RTA 3 5 µM, 1 µM 1, 10 µM APS, 15 mins irradiation shown) is recorded as “higher conversion to oxidised protein species”. In addition, the “affinity purification of biotinylated MCL-1” value on MCL-1 [3] is recorded as “Biotinylated MCL-1 was pulled-down; also recorded: could be affinity-purified with avidin-agarose beads”.

As to `CC[C@H](C)[C@H](NC(=O)[C@H](CCCNC(=N)N)NC(=O)[C@H](CCCNC(=N)N)NC(=O)[C@H](CC(C)C)NC(=O)[C@H](CCC(N)=O)NC(=O)[C@H](C)NC(=O)[C@H](C)NC(C)=O)C(=O)NCC(=O)N[C@@H](CC(=O)O)C(=O)N[C@@H](CCCCN)C(=O)N[C@H](C(=O)N[C@@H](CC(N)=O)C(=O)N[C@@H](CC(C)C)C(=O)N[C@@H](CCCNC(=N)N)C(=O)N[C@@H](CCC(N)=O)C(=O)N[C@@H](CCCCN)C(=O)N[C@@H](CC(C)C)C(=O)N[C@@H](CC(C)C)C(=O)N[C@@H](CC(N)=O)C(N)=O)C(C)C` [compound 5], the “inhibition of MCL-1 labelling by Ac-NOXA-B” value at MCL-1 [4] is “did not completely abrogate labelling”.
